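Exposure lasted 48 hours, with cells grown in 96-well plates and compounds tested at five concentrations. TGI: total growth inhibition.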
Tests used:
Test in all cases: growth of human tumour cells (NCI), 48 h
SF-268 CNS = test system: SF-268 CNS
SN12C renal = test system: SN12C renal
SK-MEL-28 melanoma = test system: SK-MEL-28 melanoma
KM12 colon = test system: KM12 colon
NCI-H23 lung = test system: NCI-H23 lung
OVCAR-4 ovarian = test system: OVCAR-4 ovarian
M19-MEL melanoma = test system: M19-MEL melanoma
UACC-62 melanoma = test system: UACC-62 melanoma
A498 renal = test system: A498 renal
CAKI-1 renal = test system: CAKI-1 renal
K-562 leukemia = test system: K-562 leukemia
SF-295 CNS = test system: SF-295 CNS
MDA-MB-231 breast = test system: MDA-MB-231 breast
MCF7 breast = test system: MCF7 breast
HOP-62 NSCLC = test system: HOP-62 NSCLC
M14 melanoma = test system: M14 melanoma
UO-31 renal = test system: UO-31 renal
SK-OV-3 ovarian = test system: SK-OV-3 ovarian
DLD-1 colon = test system: DLD-1 colon
EKVX NSCLC = test system: EKVX NSCLC
SK-MEL-2 melanoma = test system: SK-MEL-2 melanoma
DMS 114 small cell lung = test system: DMS 114 small cell lung
HT29 colon = test system: HT29 colon
A549 NSCLC = test system: A549 NSCLC
DU-145 prostate = test system: DU-145 prostate
HS 578T breast = test system: HS 578T breast
IGROV1 ovarian = test system: IGROV1 ovarian
HCC-2998 colon = test system: HCC-2998 colon
OVCAR-3 ovarian = test system: OVCAR-3 ovarian
HOP-18 NSCLC = test system: HOP-18 NSCLC
BT-549 breast = test system: BT-549 breast
SR leukemia = test system: SR leukemia
NCI-H460 lung = test system: NCI-H460 lung
T-47D breast = test system: T-47D breast
SNB-19 CNS = test system: SNB-19 CNS
ACHN renal = test system: ACHN renal
NCI-H226 lung = test system: NCI-H226 lung
RPMI-8226 leukemia = test system: RPMI-8226 leukemia
TK-10 renal = test system: TK-10 renal
MDA-N = test system: MDA-N
RXF 393 renal = test system: RXF 393 renal
SW-620 colon = test system: SW-620 colon
LOX IMVI melanoma = test system: LOX IMVI melanoma
MDA-MB-435 = test system: MDA-MB-435
SK-MEL-5 melanoma = test system: SK-MEL-5 melanoma
SF-539 CNS = test system: SF-539 CNS
UACC-257 melanoma = test system: UACC-257 melanoma
NCI/ADR-RES ovarian = test system: NCI/ADR-RES ovarian
HCT-116 colon = test system: HCT-116 colon
MALME-3M melanoma = test system: MALME-3M melanoma
HL-60(TB) leukemia = test system: HL-60(TB) leukemia
SNB-75 CNS = test system: SNB-75 CNS
LXFL 529 NSCLC = test system: LXFL 529 NSCLC
OVCAR-5 ovarian = test system: OVCAR-5 ovarian
MOLT-4 leukemia = test system: MOLT-4 leukemia
OVCAR-8 ovarian = test system: OVCAR-8 ovarian
HOP-92 NSCLC = test system: HOP-92 NSCLC
CCRF-CEM leukemia = test system: CCRF-CEM leukemia
U251 CNS = test system: U251 CNS
786-0 renal = test system: 786-0 renal
HCT-15 colon = test system: HCT-15 colon
KM20L2 colon = test system: KM20L2 colon
XF 498 CNS = test system: XF 498 CNS
NCI-H522 lung = test system: NCI-H522 lung
COLO 205 colon = test system: COLO 205 colon
PC-3 prostate = test system: PC-3 prostate
DMS 273 small cell lung = test system: DMS 273 small cell lung

COc1nc(NC2OC(COC(C)=O)C(OC(C)=O)C(OC(C)=O)C2OC(C)=O)c(N=CC=Nc2c(NC3OC(COC(C)=O)C(OC(C)=O)C(OC(C)=O)C3OC(C)=O)nc(OC)n(C)c2=O)c(=O)n1C (stereo not given)
TGI (SF-268 CNS): > 100 µM | TGI (SN12C renal): > 100 µM | TGI (SK-MEL-28 melanoma): > 100 µM | TGI (KM12 colon): > 100 µM | TGI (NCI-H23 lung): > 100 µM | TGI (OVCAR-4 ovarian): > 100 µM | TGI (M19-MEL melanoma): > 100 µM | TGI (UACC-62 melanoma): > 100 µM | TGI (A498 renal): > 100 µM | TGI (CAKI-1 renal): > 100 µM | TGI (K-562 leukemia): > 100 µM | TGI (SF-295 CNS): > 100 µM | TGI (MDA-MB-231 breast): > 100 µM | TGI (MCF7 breast): > 100 µM | TGI (HOP-62 NSCLC): > 86.6 µM | TGI (M14 melanoma): > 100 µM | TGI (UO-31 renal): > 100 µM | TGI (SK-OV-3 ovarian): > 100 µM | TGI (DLD-1 colon): > 100 µM | TGI (EKVX NSCLC): > 100 µM | TGI (SK-MEL-2 melanoma): > 100 µM | TGI (DMS 114 small cell lung): > 100 µM | TGI (HT29 colon): > 100 µM | TGI (A549 NSCLC): > 100 µM | TGI (DU-145 prostate): > 100 µM | TGI (HS 578T breast): 90.2 µM | TGI (IGROV1 ovarian): > 100 µM | TGI (HCC-2998 colon): > 100 µM | TGI (OVCAR-3 ovarian): > 100 µM | TGI (HOP-18 NSCLC): > 100 µM | TGI (BT-549 breast): > 100 µM | TGI (SR leukemia): > 100 µM | TGI (NCI-H460 lung): > 100 µM | TGI (T-47D breast): > 100 µM | TGI (SNB-19 CNS): > 100 µM | TGI (ACHN renal): > 100 µM | TGI (NCI-H226 lung): > 100 µM | TGI (RPMI-8226 leukemia): > 100 µM | TGI (TK-10 renal): > 100 µM | TGI (MDA-N): > 100 µM | TGI (RXF 393 renal): > 100 µM | TGI (SW-620 colon): > 100 µM | TGI (LOX IMVI melanoma): > 100 µM | TGI (MDA-MB-435): > 100 µM | TGI (SK-MEL-5 melanoma): > 100 µM | TGI (SF-539 CNS): > 100 µM | TGI (UACC-257 melanoma): > 100 µM | TGI (NCI/ADR-RES ovarian): > 100 µM | TGI (HCT-116 colon): > 100 µM | TGI (MALME-3M melanoma): > 100 µM | TGI (HL-60(TB) leukemia): > 100 µM | TGI (SNB-75 CNS): 48.2 µM | TGI (LXFL 529 NSCLC): > 100 µM | TGI (OVCAR-5 ovarian): > 100 µM | TGI (MOLT-4 leukemia): > 100 µM | TGI (OVCAR-8 ovarian): > 100 µM | TGI (HOP-92 NSCLC): > 93.1 µM | TGI (CCRF-CEM leukemia): > 100 µM | TGI (U251 CNS): > 100 µM | TGI (786-0 renal): > 100 µM | TGI (HCT-15 colon): > 100 µM | TGI (KM20L2 colon): > 100 µM | TGI (XF 498 CNS): 81.9 µM | TGI (NCI-H522 lung): > 100 µM | TGI (COLO 205 colon): > 100 µM | TGI (PC-3 prostate): > 100 µM

CCOC(=O)C(=O)/C=C(\C)Nc1c(NC2OCC(OC(C)=O)C(OC(C)=O)C2OC(C)=O)nc(SC)[nH]c1=O (stereo not given)
TGI (SF-268 CNS): > 100 µM | TGI (SN12C renal): > 100 µM | TGI (SK-MEL-28 melanoma): > 100 µM | TGI (KM12 colon): > 100 µM | TGI (NCI-H23 lung): > 100 µM | TGI (OVCAR-4 ovarian): > 100 µM | TGI (M19-MEL melanoma): > 100 µM | TGI (UACC-62 melanoma): > 100 µM | TGI (A498 renal): > 100 µM | TGI (CAKI-1 renal): > 100 µM | TGI (K-562 leukemia): > 100 µM | TGI (SF-295 CNS): > 100 µM | TGI (DMS 273 small cell lung): > 100 µM | TGI (HOP-62 NSCLC): > 100 µM | TGI (M14 melanoma): > 100 µM | TGI (UO-31 renal): > 100 µM | TGI (SK-OV-3 ovarian): > 100 µM | TGI (DLD-1 colon): > 100 µM | TGI (EKVX NSCLC): > 100 µM | TGI (SK-MEL-2 melanoma): > 100 µM | TGI (DMS 114 small cell lung): > 100 µM | TGI (HT29 colon): > 100 µM | TGI (A549 NSCLC): > 100 µM | TGI (IGROV1 ovarian): > 100 µM | TGI (HCC-2998 colon): > 100 µM | TGI (OVCAR-3 ovarian): > 100 µM | TGI (HOP-18 NSCLC): > 100 µM | TGI (SR leukemia): > 100 µM | TGI (NCI-H460 lung): > 100 µM | TGI (SNB-19 CNS): > 100 µM | TGI (ACHN renal): > 100 µM | TGI (RPMI-8226 leukemia): > 100 µM | TGI (TK-10 renal): > 100 µM | TGI (RXF 393 renal): > 100 µM | TGI (SW-620 colon): > 100 µM | TGI (LOX IMVI melanoma): > 100 µM | TGI (SK-MEL-5 melanoma): > 100 µM | TGI (UACC-257 melanoma): > 100 µM | TGI (HCT-116 colon): > 100 µM | TGI (MALME-3M melanoma): > 100 µM | TGI (SNB-75 CNS): > 100 µM | TGI (LXFL 529 NSCLC): > 100 µM | TGI (OVCAR-5 ovarian): > 100 µM | TGI (MOLT-4 leukemia): > 100 µM | TGI (OVCAR-8 ovarian): > 100 µM | TGI (HOP-92 NSCLC): > 100 µM | TGI (CCRF-CEM leukemia): > 100 µM | TGI (U251 CNS): > 100 µM | TGI (786-0 renal): > 100 µM | TGI (HCT-15 colon): > 100 µM | TGI (KM20L2 colon): > 100 µM | TGI (XF 498 CNS): > 100 µM | TGI (NCI-H522 lung): > 100 µM | TGI (COLO 205 colon): > 100 µM
